Reference: patent US20210309978A1, “POLYNUCLEOTIDE SEQUENCE ENCODING A LOCAL SOURCED NOVEL ESTERASE” (ISTANBUL TEKNIK UNIVERSITESI, priority 2018, published 2021)

Tests used:
esterase enzyme [1] = assay: Effect of metals on enzyme activity; format: biochemical, microflora of Ac1göl (Aci Lake); settings: for Metal tolerance, This study: the enzyme of the invention in presence of metal ion
[2] = system: Salt-Tolerant Esterase from the Deep-Sea Sediment of the South China Sea; settings: literature enzyme in presence of metal ion; cited from earlier work
[3] = system: new true lipase isolated through metagenomic approach; settings: literature enzyme in presence of metal ion; cited from earlier work
[4] = system: thermophilic and halophilic esterase from Janibacter sp. R02; settings: literature enzyme in presence of metal ion; cited from earlier work
esterase enzyme [5] = assay: Effect of solutions (solvents) on enzyme stability (24 hours incubation); format: biochemical, microflora of Ac1göl (Aci Lake); settings: for Effect of solutions on stability, Activity (%) 15% Solution: enzyme incubated 24 hours in buffer containing 15% solution; for Effect of solutions on stability, Activity (%) 30% Solution: enzyme incubated 24 hours in buffer containing 30% solution
Experimental: (§1) 6. […] The final concentration of the enzyme and substrate have been 1 μM and 1 mM respectively and absorbance measurements have been taken at 410 nm. The activity has been calculated by means of the below formula and one unit of activity has been defined as the enzyme amount which produces 1 μmol product in 1 minute.
(§2) Activity (U/L)=[(ΔAbs/t)/(ε*d)]*106*Vt/Vs • ΔAbs=Absorbance change; t=time (minute); ε=extinction coefficient (M−1 cm−1); d=light path (cm); Vt=total reaction volume; Vs=enzyme volume used in reaction.
(§3) Additionally, the effect of different solutions (hexane, chloroform, acetone, dimethyl formamide (DMF), dimethyl sulphoxide (DMSO), 2-propanol, butanol, 1-propanol, ethanol, methanol and glycerol) on the activity and stability of the enzyme have been measured. In the activity tests, 10% solution has been added into the reaction and in the stability tests the enzyme has been incubated for 24 hours in a buffer solution containing 15% and 30% solution.

esterase enzyme [6] = assay: Effect of solutions (solvents) on enzyme activity; format: biochemical, microflora of Ac1göl (Aci Lake); settings: for Effect of solutions on activity, Activity (%): 10% solution added into the reaction
Experimental: as §1, §2, §3

[7] = system: heavy metal-resistant, thermophilic esterase from a Red Sea Brine Pool; settings: literature enzyme in presence of metal ion; cited from earlier work
esterase enzyme [8] = assay: Effects of inhibitors and detergents on enzyme activity; format: biochemical, microflora of Ac1göl (Aci Lake)

O=S(=O)([O-])[O-].[Fe+2] [FeSO4]
Activity (%) (1 mM metal) (esterase enzyme [1]): 115.7 ± 2.3% | Activity (%) (5 mM metal) (esterase enzyme [1]): 0.0%

[Fe+2] [Fe^2+]
Metal tolerance, Zhang et al, 2017 [2]: 85 | Metal tolerance, Glogauer et al, 2011 [3]: 33 | Metal tolerance, Castilla et al, 2017 [4]: 55 | Metal tolerance, This study (esterase enzyme [1]): 116

OCC(O)CO [Glycerol, glycerol]
Effect of solutions on stability, Activity (%) 15% Solution (esterase enzyme [5]): 113.3 ± 1.8% | Effect of solutions on stability, Activity (%) 30% Solution (esterase enzyme [5]): 106.9 ± 3.1% | Effect of solutions on activity, Activity (%) (esterase enzyme [6]): 104.2 ± 6.2% | increase of activity (esterase enzyme [6]; in the presence of 10% solvents): 4%

CCCCCC [Hexane, hexane]
Effect of solutions on stability, Activity (%) 15% Solution (esterase enzyme [5]): 113.6 ± 8.5% | Effect of solutions on stability, Activity (%) 30% Solution (esterase enzyme [5]): 100.2 ± 4.9% | Effect of solutions on activity, Activity (%) (esterase enzyme [6]): 22.6 ± 4.9%

[Cl-].[K+] [KCl]
Activity (%) (1 mM metal) (esterase enzyme [1]): 127.9 ± 3.9% | Activity (%) (5 mM metal) (esterase enzyme [1]): 98.2 ± 3.4%

[K+] [K^+]
Metal tolerance, Zhang et al, 2017 [2]: 108 | Metal tolerance, Glogauer et al, 2011 [3]: 122 | Metal tolerance, Castilla et al, 2017 [4]: 90 | Metal tolerance, This study (esterase enzyme [1]): 128

CO [Methanol, methanol]
Effect of solutions on stability, Activity (%) 15% Solution (esterase enzyme [5]): 108.5 ± 0.2% | Effect of solutions on stability, Activity (%) 30% Solution (esterase enzyme [5]): 99.4 ± 6.6% | Effect of solutions on activity, Activity (%) (esterase enzyme [6]): 81.1 ± 1.1% | Effect of solutions on activity, Activity (%) (esterase enzyme [6]; listed as methanol): 81%

[Cl-].[Cl-].[Mg+2] [MgCl2]
Activity (%) (1 mM metal) (esterase enzyme [1]): 130.2 ± 0.6% | Activity (%) (5 mM metal) (esterase enzyme [1]): 104.6 ± 3%

O=S(=O)([O-])[O-].[Mn+2] [MnSO4]
Activity (%) (1 mM metal) (esterase enzyme [1]): 130.4 ± 0.4% | Activity (%) (5 mM metal) (esterase enzyme [1]): 110.3 ± 3.5%

[Mn+2] [Mn^2+]
Metal tolerance, Mohamed et al, 2013 [7]: 112 | Metal tolerance, Zhang et al, 2017 [2]: 76 | Metal tolerance, Glogauer et al, 2011 [3]: 47 | Metal tolerance, Castilla et al, 2017 [4]: 75 | Metal tolerance, This study (esterase enzyme [1]): 130

[Cl][Ni][Cl] [NiCl2]
Activity (%) (1 mM metal) (esterase enzyme [1]): 110.4 ± 6.1% | Activity (%) (5 mM metal) (esterase enzyme [1]): 0.5%

[Ni+2] [Ni^2+]
Metal tolerance, Zhang et al, 2017 [2]: 68 | Metal tolerance, Glogauer et al, 2011 [3]: 66 | Metal tolerance, Castilla et al, 2017 [4]: 75 | Metal tolerance, This study (esterase enzyme [1]): 110

O=S(=O)(F)Cc1ccccc1 [PMSF, phenylmethanesulfonyl fluoride]
Activity (%) (1 mM inh.) (esterase enzyme [8]): 1.3 ± 0.1% | Activity (%) (5 mM inh.) (esterase enzyme [8]): 0.2%

CCCCCCCCCCCCOS(=O)(=O)[O-].[Na+] [SDS, sodium dodecyl sulphate]
Activity (%) (1 mM inh.) (esterase enzyme [8]): 85.6 ± 2.9% | Activity (%) (5 mM inh.) (esterase enzyme [8]): 5.0 ± 0.8%

O=S(=O)([O-])[O-].[Zn+2] [ZnSO4]
Activity (%) (1 mM metal) (esterase enzyme [1]): 6.1 ± 3.1% | Activity (%) (5 mM metal) (esterase enzyme [1]): 1.3 ± 1.2%

[Zn+2] [Zn^2+]
Metal tolerance, Mohamed et al, 2013 [7]: 85 | Metal tolerance, Zhang et al, 2017 [2]: 25 | Metal tolerance, Glogauer et al, 2011 [3]: 45 | Metal tolerance, Castilla et al, 2017 [4]: 160 | Metal tolerance, This study (esterase enzyme [1]): 6

[Mg+2] [mg^2+]
Metal tolerance, Mohamed et al, 2013 [7]: 91 | Metal tolerance, Zhang et al, 2017 [2]: 97 | Metal tolerance, Glogauer et al, 2011 [3]: 65 | Metal tolerance, Castilla et al, 2017 [4]: 160 | Metal tolerance, This study (esterase enzyme [1]): 130

NP-40
Activity (%) (1 mM inh.) (esterase enzyme [8]): 101.9 ± 6.8% | Activity (%) (5 mM inh.) (esterase enzyme [8]): 89.1 ± 1.5%

Triton X-100
Activity (%) (1 mM inh.) (esterase enzyme [8]): 105.3 ± 2.4% | Activity (%) (5 mM inh.) (esterase enzyme [8]): 87.7 ± 3.2%

Tween-80
Activity (%) (1 mM inh.) (esterase enzyme [8]): 107.2 ± 7.9% | Activity (%) (5 mM inh.) (esterase enzyme [8]): 80.7 ± 2.2%

butanol
Effect of solutions on stability, Activity (%) 15% Solution (esterase enzyme [5]): 97.1 ± 3.3% | Effect of solutions on stability, Activity (%) 30% Solution (esterase enzyme [5]): 104.9 ± 2.4% | Effect of solutions on activity, Activity (%) (esterase enzyme [6]): 3.3 ± 3.3%
